Experimental data as given in patent publication US8071763B2, “Methods for treatment of nocturia” (Daiichi Sankyo Company, Limited, priority 2002, dated 2011).

How the values were obtained:
patients with nocturia = experiment: Continuation and termination of loxoprofen administration after the trial treatment; type: in vivo, human
Description: After the initial study, loxoprofen was administered at the patients' discretion; 101 continued loxoprofen therapy for =320 (mean 61) days. After the evaluation, loxoprofen therapy was continued or not according to the patients' wishes (Table 5). Of 101 excellent and improved patients, 11 continued to take loxoprofen every night and 43 when necessary. The improvement of nocturia lasted for several months even after discontinuation of therapy in 11 (10%) who discontinued loxoprofen after 5 to 310 days' administration. In addition, in five patients in whom loxoprofen's effectiveness reduced after continuous administration, the effectiveness recovered with occasional administration following withdrawal for several weeks.

nocturia = experiment: Single BPH patient taking a loxoprofen sodium tablet before sleeping; type: in vivo, human; conditions: one patient treated for BPH; 60-mg tablet before sleeping
Description: Based on the experience, the inventor conducted a non-randomized trial treatment with loxoprofen, a short-acting nonsteroidal anti-inflammatory drug (NSAID) prodrug usually prescribed at a dosage of 60 mg t.i.d. for the management of pain, in patients bothered by nocturia. […] The invention was achieved on the basis of these findings.

[1] = discontinued after 5 to 310 days' administration
[2] = patients with Excellent Response
[3] = patients with Improved Response

Structure (SMILES): CC(C(=O)O)c1ccc(CC2CCCC2=O)cc1 (stereo not drawn) [loxoprofen, loxoprofen sodium]
- Improvement of nocturia lasted for several months after discontinuation of therapy, % of patients (patients with nocturia; [1]): 10%
- Improvement of nocturia lasted for several months after discontinuation of therapy, no. of patients (patients with nocturia; [1]): 11
- Effectiveness reduced after continuous administration and recovered with occasional administration, no. of patients (patients with nocturia; following withdrawal for several weeks): five
- Discontinued therapy due to adverse events, no. of patients (patients with nocturia; [2]): 1
- Discontinued therapy: cured or stable improvement, no. of patients (patients with nocturia; [2]): 7
- Discontinued therapy due to adverse events, no. of patients (patients with nocturia; [3]): 9
- Discontinued therapy: cured or stable improvement, no. of patients (patients with nocturia; [3]): 4
- Discontinued therapy: reduced efficacy, no. of patients (patients with nocturia; [3]): 2
- Nocturia, voids/night (nocturia): decreased from a usual of four voids to one void/night
